Test results: patent US20260193647A1, “MIRNA-BASED CANCER THERAPY WITH A TUMOR-NAVIGATING PEPTIDE” (The Board of Trustees of the Universities of Illinois, priority 2022, published 2026)
Ends that are not written are not given here.

Experiments:
SJ-GBM2 cells = assay: cells; conditions: Homo sapiens, 24 h, read-out: IC50 (cell viability)
Protocol: (§1) Cell viability was evaluated by a CCK-8 assay (Dojindo, Japan). Cells were seeded at a density of 4,000 cells per well in 100 μl of growth medium in 96-well plates and grown overnight. Then, the cells were exposed to antisense miR-20a alone, p28 alone or negative control or AmiR20-p28 over a range of concentrations and incubated for 24 hr. According to the manufacturer's instructions, 10 μl of CCK-8 solution was added to each well, followed by incubation for 1 hr at 37° C. The absorbance at 450 nm was determined by a multiplate reader.
(§2) Cell viability (%)=Abs(sample)−Abs(blank)/Abs(no treatment)−Abs(blank)×100

miR21 = miR21 expression by qPCR in treated cells; type: cell-based, human
[1] = tested on: SJ-GBM2, CHLA-200, LN-229 and astrocytes; assay: CCK-8 cell viability assay, set of cell lines tested; type: cell-based, human; conditions: component alone; 24 hr
Protocol: as §1, §2

miR-20a = miR-20a expression levels by stem loop qPCR in treated cells; type: cell-based, human; conditions: any of the cell lines tested; administered alone, 10 nM, 24 hr
Source text: Micro RNA enriched fraction was extracted using the miRNeasy Mini Kit (Qiagen, Catalog #217004) following the manufacturer's instructions. Stem loop real-time qPCR was used to analyze miRNA expression. We designed miR-20a stem loop RT primers and amplification primers according to a previously described method 79. cDNA was synthesized from extracted RNA using unique stem loop RT primers. The sequence of the stem loop primer for miR-20a was 5′-[…]-3′ (SEQ ID NO:7). Reverse transcriptase reactions contained the following reagents: 10 ng of RNA sample, 60 nM stem-loop RT primer, 1×RT buffer, 0.25 mM dNTP, and 4 U/μl reverse transcriptase. Reactions were performed by incubation at 16° C. for 30 min, 42° C. for 30 min and 85° C. for 5 min. Real-time PCR (7300 Real time PCR Systems, Applied Biosystems, CA) was performed using the specific forward primer for miR-20a (5′-[…]-3′ (SEQ ID NO:8)) and a universal reverse primer (5′-GTGCA GGGTC CGAGGT-3′ (SEQ ID NO:9)). The 20-μl PCR mixture included 1×SYBR Premix (Invitrogen), 2 μl of RT products and each forward and reverse primer at 10 nM. Reactions were performed by incubation in a 96-well plate at 95° C. for 30 sec, followed by 35 cycles of 95° C. for 30 sec and 60° C. for 30 sec. U6 was used as an internal control to normalize the level of target miRNAs. The results were verified by performing PCR using M13 modified forward and reverse primers specific to stem loop sequence. The PCR products were visualized in 2% agarose gels and DNA-sequence was confirmed. Human tumor and serum samples were obtained from patients who had signed informed consent and the institutional review board approval was obtained in Pediatric Brain Tumor Consortium (PBTC-041) participating sites.

[2] = human, in vivo; cited from earlier work
[3] = tested on: SJ-GBM2 cells, CHLA-200 cells and astrocytes; assay: Cellular entry by confocal microscopy; type: cell-based, human; conditions: 20 μM Alexa Fluor labeled, 2 hr, 37° C.; pGBM cells vs normal astrocytes
Protocol: p28 or AmiR20-p28 were dissolved in PBS mixed with Alexa Fluor 568 dye (Invitrogen) at a 1:2 peptide/dye ratio 37. Sodium bicarbonate (pH 8.5) was added and incubated at 4° C. with continuous stirring. Alexa Fluor 568 labeled p28 and AmiR20-p28 were dialyzed against cold-PBS using Slide-A-Lyzer Dialysis Cassettes (Pierce Biotechnology). Similarly, p28 was labeled with ICG as described previously.
SJ-GBM2 cells, CHLA-200 cells and astrocytes (2×10^4 cells/well) were cultured on glass slides placed in 24-well plates. After overnight culture, the cells were washed with PBS and incubated with 20 μM Alexa Fluor 568-labeled p28 peptide in medium (5% FBS and without phenol red) for 2 hr at 37° C. Cells were fixed with 2% formalin for 10 min. After washing, slides were prepared and mounted with Vectashield with DAPI (Vector Laboratories, Catalog #94010). Slides were examined by an LSM 710 confocal laser scanning microscope (Zeiss). Images were processed using ZEN software (ZEISS ZEN Lite). As for a GSC marker, the slides were first incubated with Alexa Fluor 568-labeled AmiR20-p28 for 2 hr at 37° C. Cells were fixed with 2% formalin for 10 min. After washing, slides were incubated with blocking buffer for 1 hr at room temperature, followed by consecutive staining with anti-CD133 antibody (1:500, R&D Systems FAB11331G). Slides were washed and mounted with Vectashield containing DAPI. […]

Cn1nnc2c(C(N)=O)ncn2c1=O [TMZ, temozolomide]
IC50 (SJ-GBM2 cells): ~600 µM

AmiR21-p28: cell-penetrating peptide p28 chemically conjugated to antisense-miR21 (LSTAADMQGVVTDGMASGLDKDYLKPDD; also: chemically conjugated to antisense miR-21, site not given here; UniProt P00282 70-97, looked up, fragment)
endogenous miR21 (miR21; pGBM and aGBM cells, Ten nM): significantly reduced the endogenous miR21

p28: CPP derived from Pseudomonas aeruginosa azurin that preferentially enters cancer cells; carrier component tested alone [reference compound]
inhibitory effect on cell viability [1]: neither p28 nor AmiR20, alone had an inhibitory effect on cell viability
inhibitory effect on miR-20a expression (miR-20a): did not have a significant inhibitory effect
tolerability in patients [2]: well tolerated without apparent adverse effects, toxicity, or immunogenicity
reduction of miR21 (miR21; any cell lines tested, component alone): did not induce a significant reduction of miR21
cellular entry (confocal images) [3]: preferentially penetrated
